Experiments:
Assay type in all cases: cell-based
IKZF3 = biological target: T1, IKZF3 (Homo sapiens, UniProt Q96SW2+Q9UKT9); assay: Western blot degradation of IKZF3 in hPBMC
T1 construct: endogenous in cells; host or cells: hPBMC
Description: (§1) Conventional Western blot assay was performed to evaluate the effects of the compounds of the present disclosure on the expression of target proteins in cells.
(§2) • (1) Cell Seeding and Protein Harvesting: The selected cells were processed according to the cell seeding procedure and protein harvesting procedure in Table III-2.
(§3) • (2) To the collected supernatant, 5×SDS sample loading buffer was added, followed by denaturation at 95° C. for 5 minutes. The denatured samples were then separated by SDS-PAGE electrophoresis on a polyacrylamide gel. Proteins were transferred to a nitrocellulose membrane ([…] NC membrane), blocked with blocking buffer at room temperature for 1 hour, and subjected to antibody incubation and development procedures according to the antibody manufacturer's instructions (Cell Signaling Technology).
(§4) Half-Maximal Degradation Concentration value (the drug concentration required for degrading proteins by 50%, abbreviated as DC50) reads method: comparing the grayscale values of Western blot bands from drug-treated samples with those from blank DMSO-treated controls, and identifying the drug concentration range at which the grayscale value is half that of the DMSO-treated control bands.
(§5) DC50 values can be calculated using ImageJ software to measure grayscale values of Western blot bands from drug-treated samples. The concentration-response curve is fitted to estimate the drug concentration corresponding to half the grayscale value.
(§6) Target protein remaining (0%) refers to the percentage of target protein remaining in hPBMC cells after treatment with protein degrader compounds.
(§7) Calculation method for target protein remaining (0%): Use ImageJ software to measure grayscale values of Western blot bands from drug (protein degrader)-treated samples. The grayscale value of drug-treated bands is divided by that of internal control protein bands, and the resulting quotient is normalized to obtain the relative percentage of remaining target protein after protein degrader treatment.

CK1a = biological target: T2, CK1a (Homo sapiens, UniProt P48729+Q96SW2); assay: Western blot degradation of CK1a in hPBMC
T2 construct: endogenous in cells; host or cells: hPBMC
T2 sequence (P48729 whole entry): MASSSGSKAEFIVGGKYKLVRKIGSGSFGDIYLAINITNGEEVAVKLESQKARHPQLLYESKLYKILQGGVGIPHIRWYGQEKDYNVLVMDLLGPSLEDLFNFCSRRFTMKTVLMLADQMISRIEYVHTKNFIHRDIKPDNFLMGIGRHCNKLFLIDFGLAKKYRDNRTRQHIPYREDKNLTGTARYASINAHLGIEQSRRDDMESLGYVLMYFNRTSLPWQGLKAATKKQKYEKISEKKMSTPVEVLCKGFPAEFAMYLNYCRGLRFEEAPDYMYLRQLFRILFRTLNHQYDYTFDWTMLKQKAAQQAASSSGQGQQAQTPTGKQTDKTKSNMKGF
T2 sequence (Q96SW2 whole entry): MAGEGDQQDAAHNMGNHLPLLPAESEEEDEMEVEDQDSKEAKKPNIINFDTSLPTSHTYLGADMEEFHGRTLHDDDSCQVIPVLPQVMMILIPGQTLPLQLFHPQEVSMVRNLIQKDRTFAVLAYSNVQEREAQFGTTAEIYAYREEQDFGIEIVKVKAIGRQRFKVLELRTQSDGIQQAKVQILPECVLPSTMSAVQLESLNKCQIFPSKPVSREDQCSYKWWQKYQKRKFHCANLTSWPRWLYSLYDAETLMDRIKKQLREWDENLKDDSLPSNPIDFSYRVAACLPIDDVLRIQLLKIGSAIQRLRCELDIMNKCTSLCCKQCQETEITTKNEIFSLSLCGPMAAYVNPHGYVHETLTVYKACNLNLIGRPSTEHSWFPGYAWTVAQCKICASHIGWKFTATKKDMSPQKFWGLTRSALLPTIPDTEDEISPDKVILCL
T2 sequence (Q16531 whole entry partner): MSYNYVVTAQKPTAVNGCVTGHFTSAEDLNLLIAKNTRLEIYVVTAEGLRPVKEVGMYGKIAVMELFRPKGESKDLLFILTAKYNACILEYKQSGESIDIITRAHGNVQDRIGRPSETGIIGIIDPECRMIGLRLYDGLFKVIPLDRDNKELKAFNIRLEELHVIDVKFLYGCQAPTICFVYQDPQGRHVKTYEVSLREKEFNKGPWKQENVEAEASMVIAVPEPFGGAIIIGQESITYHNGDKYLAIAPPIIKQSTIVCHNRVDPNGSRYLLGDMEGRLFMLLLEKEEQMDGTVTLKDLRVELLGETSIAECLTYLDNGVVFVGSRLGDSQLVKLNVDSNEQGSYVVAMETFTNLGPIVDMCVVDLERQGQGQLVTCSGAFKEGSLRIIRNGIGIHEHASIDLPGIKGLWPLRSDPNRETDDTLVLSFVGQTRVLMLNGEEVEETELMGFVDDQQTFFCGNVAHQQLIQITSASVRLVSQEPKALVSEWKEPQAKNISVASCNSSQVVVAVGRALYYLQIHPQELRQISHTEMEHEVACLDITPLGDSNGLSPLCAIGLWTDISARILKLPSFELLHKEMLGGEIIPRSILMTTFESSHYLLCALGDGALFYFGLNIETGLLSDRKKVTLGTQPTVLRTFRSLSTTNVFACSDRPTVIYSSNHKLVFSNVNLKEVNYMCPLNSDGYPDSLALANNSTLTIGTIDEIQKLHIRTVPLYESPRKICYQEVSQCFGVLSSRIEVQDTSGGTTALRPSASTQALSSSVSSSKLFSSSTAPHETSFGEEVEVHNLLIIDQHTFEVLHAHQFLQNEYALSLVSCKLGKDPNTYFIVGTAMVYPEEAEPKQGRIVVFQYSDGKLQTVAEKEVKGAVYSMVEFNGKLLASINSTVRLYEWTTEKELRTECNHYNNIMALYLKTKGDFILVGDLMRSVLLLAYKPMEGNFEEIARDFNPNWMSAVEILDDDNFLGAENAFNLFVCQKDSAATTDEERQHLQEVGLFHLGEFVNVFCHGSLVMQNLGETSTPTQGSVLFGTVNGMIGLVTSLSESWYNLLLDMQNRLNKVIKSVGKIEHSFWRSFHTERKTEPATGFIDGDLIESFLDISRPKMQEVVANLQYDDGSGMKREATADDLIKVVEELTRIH
Description: as §1, §2, §3, §4, §5, §6, §7

WEE1 = biological target: T3, WEE1 (Homo sapiens, UniProt P30291+Q96SW2); assay: Western blot degradation of WEE1 in hPBMC
T3 construct: endogenous in cells; host or cells: hPBMC
Description: as §1, §2, §3, §4, §5, §6, §7

IKZF2 = biological target: T4, IKZF2 (Homo sapiens, UniProt Q96SW2+Q9UKS7); assay: Western blot degradation of IKZF2 in hPBMC
T4 construct: endogenous in cells; host or cells: hPBMC
T4 sequence (Q9UKS7 whole entry): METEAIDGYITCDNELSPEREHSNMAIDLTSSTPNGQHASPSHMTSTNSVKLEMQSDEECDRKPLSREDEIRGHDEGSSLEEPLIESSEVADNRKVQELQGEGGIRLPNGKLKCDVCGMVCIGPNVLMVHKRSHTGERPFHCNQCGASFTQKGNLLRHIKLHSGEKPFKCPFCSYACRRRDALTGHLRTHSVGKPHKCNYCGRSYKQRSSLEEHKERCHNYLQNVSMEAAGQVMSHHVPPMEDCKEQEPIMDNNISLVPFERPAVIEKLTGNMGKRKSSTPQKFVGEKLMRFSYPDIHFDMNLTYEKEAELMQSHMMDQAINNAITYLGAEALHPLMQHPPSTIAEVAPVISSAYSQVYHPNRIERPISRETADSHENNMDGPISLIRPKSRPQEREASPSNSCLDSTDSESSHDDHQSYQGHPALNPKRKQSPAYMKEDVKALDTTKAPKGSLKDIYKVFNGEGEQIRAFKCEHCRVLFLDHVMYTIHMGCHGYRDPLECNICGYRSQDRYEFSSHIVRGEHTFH
T4 sequence (Q96SW2 whole entry): as the sequence (Q96SW2 whole entry) above
T4 sequence (Q16531 whole entry partner): as the sequence (Q16531 whole entry partner) above
Description: as §1, §2, §3, §4, §5, §6, §7

IKZF1 = biological target: T5, IKZF1 (Homo sapiens, UniProt Q13422+Q96SW2); assay: Western blot degradation of IKZF1 in hPBMC
T5 construct: endogenous in cells; host or cells: hPBMC
T5 sequence (Q13422 whole entry): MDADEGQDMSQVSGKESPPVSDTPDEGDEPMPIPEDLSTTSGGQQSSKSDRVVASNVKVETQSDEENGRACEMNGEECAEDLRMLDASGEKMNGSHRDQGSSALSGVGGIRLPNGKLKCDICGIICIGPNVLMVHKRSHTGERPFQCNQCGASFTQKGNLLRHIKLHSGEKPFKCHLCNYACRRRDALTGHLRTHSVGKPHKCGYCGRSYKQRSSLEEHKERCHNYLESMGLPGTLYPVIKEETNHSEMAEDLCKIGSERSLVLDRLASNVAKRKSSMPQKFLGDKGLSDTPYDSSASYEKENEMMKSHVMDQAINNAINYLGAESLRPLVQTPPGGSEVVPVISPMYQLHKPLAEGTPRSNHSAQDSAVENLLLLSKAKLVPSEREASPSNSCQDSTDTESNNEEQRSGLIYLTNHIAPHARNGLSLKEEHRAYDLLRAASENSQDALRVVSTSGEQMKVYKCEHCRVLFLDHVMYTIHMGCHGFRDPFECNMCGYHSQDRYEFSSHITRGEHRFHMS
T5 sequence (Q96SW2 whole entry): as the sequence (Q96SW2 whole entry) above
T5 sequence (Q16531 whole entry partner): as the sequence (Q16531 whole entry partner) above
Description: as §1, §2, §3, §4, §5, §6, §7

GSPT1 = biological target: T6, GSPT1 (Homo sapiens, UniProt P15170+Q96SW2); assay: Western blot degradation of GSPT1 in hPBMC
T6 construct: endogenous in cells; host or cells: hPBMC
T6 sequence (P15170 whole entry): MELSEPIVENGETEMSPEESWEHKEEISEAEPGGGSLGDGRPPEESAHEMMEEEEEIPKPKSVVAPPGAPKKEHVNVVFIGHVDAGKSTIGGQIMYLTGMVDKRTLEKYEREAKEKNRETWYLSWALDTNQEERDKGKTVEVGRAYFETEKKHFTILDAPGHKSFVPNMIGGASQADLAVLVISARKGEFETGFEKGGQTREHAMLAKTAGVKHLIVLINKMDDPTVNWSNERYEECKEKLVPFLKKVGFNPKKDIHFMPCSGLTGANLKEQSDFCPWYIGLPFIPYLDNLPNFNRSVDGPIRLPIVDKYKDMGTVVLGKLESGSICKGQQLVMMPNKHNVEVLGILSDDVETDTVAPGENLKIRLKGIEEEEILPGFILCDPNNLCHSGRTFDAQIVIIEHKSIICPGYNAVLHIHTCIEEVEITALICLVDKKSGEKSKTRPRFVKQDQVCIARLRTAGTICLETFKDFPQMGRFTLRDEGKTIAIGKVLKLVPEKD
T6 sequence (Q96SW2 whole entry): as the sequence (Q96SW2 whole entry) above
T6 sequence (Q16531 whole entry partner): as the sequence (Q16531 whole entry partner) above
Description: as §1, §2, §3, §4, §5, §6, §7

T1 sequence (Q9UKT9 whole entry): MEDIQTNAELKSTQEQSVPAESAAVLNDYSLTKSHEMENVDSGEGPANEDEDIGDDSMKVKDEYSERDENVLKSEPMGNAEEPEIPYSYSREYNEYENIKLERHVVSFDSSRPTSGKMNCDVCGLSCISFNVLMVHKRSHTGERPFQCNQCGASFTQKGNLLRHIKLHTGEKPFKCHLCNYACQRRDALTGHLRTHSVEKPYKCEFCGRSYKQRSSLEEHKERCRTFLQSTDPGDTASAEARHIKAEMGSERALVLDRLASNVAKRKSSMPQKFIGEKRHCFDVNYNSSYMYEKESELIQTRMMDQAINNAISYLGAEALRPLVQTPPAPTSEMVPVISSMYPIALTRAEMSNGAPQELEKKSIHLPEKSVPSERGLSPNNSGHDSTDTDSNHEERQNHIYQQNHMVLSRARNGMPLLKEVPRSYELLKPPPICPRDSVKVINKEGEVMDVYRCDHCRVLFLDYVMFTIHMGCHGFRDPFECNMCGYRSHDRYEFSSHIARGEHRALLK
T1 sequence (Q96SW2 whole entry): as the sequence (Q96SW2 whole entry) above
T1 sequence (Q16531 whole entry partner): as the sequence (Q16531 whole entry partner) above

Compound	Degradation of substrate protein IKZF3 (substrate protein remaining %) (IKZF3)	Degradation of substrate protein CK1a (substrate protein remaining %) (CK1a)	Degradation of substrate protein WEE1 (substrate protein remaining %) (WEE1)	Degradation of substrate protein IKZF2 (substrate protein remaining %) (IKZF2)	Degradation of substrate protein IKZF1 (substrate protein remaining %) (IKZF1)	Degradation of substrate protein GSPT1 (substrate protein remaining %) (GSPT1)
CC(C)(C)[Si](C)(C)OCc1ccc(NC2CCC(=O)NC2=O)nc1 (stereo not drawn) [GT-07552, 3-((5-(((tert-butyldimethylsilyl)oxy)methyl)pyridin-2-yl)amino)piperidine-2,6-dione]	B (B is defined as substrate protein remaining % > 80%)	B (B is defined as substrate protein remaining % > 80%)	B (B is defined as substrate protein remaining % > 80%)	A (A is defined as 0% ≤ substrate protein remaining % ≤ 80%)	B (B is defined as substrate protein remaining % > 80%)	B (B is defined as substrate protein remaining % > 80%)
O=C1CCN(c2cnc(F)c(CO)c2)C(=O)N1 [GT-07556, 1-(6-fluoro-5-(hydroxymethyl)pyridin-3-yl)dihydropyrimidine-2,4(1H,3H)-dione]	A (A is defined as 0% ≤ substrate protein remaining % ≤ 80%)	A (A is defined as 0% ≤ substrate protein remaining % ≤ 80%)	A (A is defined as 0% ≤ substrate protein remaining % ≤ 80%)	B (B is defined as substrate protein remaining % > 80%)	A (A is defined as 0% ≤ substrate protein remaining % ≤ 80%)	B (B is defined as substrate protein remaining % > 80%)
O=C1CCC(Nc2ccc(CO)nn2)C(=O)N1 (stereo not drawn) [GT-07803, 3-((6-(hydroxymethyl)pyridazin-3-yl)amino)piperidine-2,6-dione]	A (A is defined as 0% ≤ substrate protein remaining % ≤ 80%)	B (B is defined as substrate protein remaining % > 80%)	B (B is defined as substrate protein remaining % > 80%)	A (A is defined as 0% ≤ substrate protein remaining % ≤ 80%)	A (A is defined as 0% ≤ substrate protein remaining % ≤ 80%)	B (B is defined as substrate protein remaining % > 80%)
NCc1cncc(N2CCC(=O)NC2=O)c1 [GT-07077, 1-(5-(aminomethyl)pyridin-3-yl)dihydropyrimidine-2,4(1H,3H)-dione]	B (B is defined as substrate protein remaining % > 80%)	B (B is defined as substrate protein remaining % > 80%)	B (B is defined as substrate protein remaining % > 80%)	B (B is defined as substrate protein remaining % > 80%)	B (B is defined as substrate protein remaining % > 80%)	A (A is defined as 0% ≤ substrate protein remaining % ≤ 80%)
O=C1CCN(c2cnc(CCl)cn2)C(=O)N1 [GT-07635, 1-(5-(chloromethyl)pyrazin-2-yl)dihydropyrimidine-2,4(1H,3H)-dione]	A (A is defined as 0% ≤ substrate protein remaining % ≤ 80%)	A (A is defined as 0% ≤ substrate protein remaining % ≤ 80%)	A (A is defined as 0% ≤ substrate protein remaining % ≤ 80%)	A (A is defined as 0% ≤ substrate protein remaining % ≤ 80%)	A (A is defined as 0% ≤ substrate protein remaining % ≤ 80%)	B (B is defined as substrate protein remaining % > 80%)
O=C1CCN(c2cnc(CO)cn2)C(=O)N1 [GT-07634, 1-(5-(hydroxymethyl)pyrazin-2-yl)dihydropyrimidine-2,4(1H,3H)-dione]	A (A is defined as 0% ≤ substrate protein remaining % ≤ 80%)	A (A is defined as 0% ≤ substrate protein remaining % ≤ 80%)	A (A is defined as 0% ≤ substrate protein remaining % ≤ 80%)	A (A is defined as 0% ≤ substrate protein remaining % ≤ 80%)	A (A is defined as 0% ≤ substrate protein remaining % ≤ 80%)	B (B is defined as substrate protein remaining % > 80%)
O=Cc1cncnc1NC1CCC(=O)NC1=O (stereo not drawn) [GT-07805, 4-((2,6-dioxopiperidin-3-yl)amino)pyrimidine-5-carbaldehyde]	A (A is defined as 0% ≤ substrate protein remaining % ≤ 80%)	B (B is defined as substrate protein remaining % > 80%)	B (B is defined as substrate protein remaining % > 80%)	A (A is defined as 0% ≤ substrate protein remaining % ≤ 80%)	A (A is defined as 0% ≤ substrate protein remaining % ≤ 80%)	B (B is defined as substrate protein remaining % > 80%)
O=C1CCC(Nc2ncncc2CO)C(=O)N1 (stereo not drawn) [GT-07727, 3-((5-(hydroxymethyl)pyrimidin-4-yl)amino)piperidine-2,6-dione]	A (A is defined as 0% ≤ substrate protein remaining % ≤ 80%)	B (B is defined as substrate protein remaining % > 80%)	A (A is defined as 0% ≤ substrate protein remaining % ≤ 80%)	A (A is defined as 0% ≤ substrate protein remaining % ≤ 80%)	A (A is defined as 0% ≤ substrate protein remaining % ≤ 80%)	B (B is defined as substrate protein remaining % > 80%)
CC(C)(C)[Si](C)(C)OCc1cc(NC2CCC(=O)NC2=O)ncc1F (stereo not drawn) [GT-07724, 3-((4-(((tert-butyldimethylsilyl)oxy)methyl)-5-fluoropyridin-2-yl)amino)piperidine-2,6-dione]	A (A is defined as 0% ≤ substrate protein remaining % ≤ 80%)	B (B is defined as substrate protein remaining % > 80%)	A (A is defined as 0% ≤ substrate protein remaining % ≤ 80%)	A (A is defined as 0% ≤ substrate protein remaining % ≤ 80%)	A (A is defined as 0% ≤ substrate protein remaining % ≤ 80%)	A (A is defined as 0% ≤ substrate protein remaining % ≤ 80%)
NCc1cc(N2CCC(=O)NC2=O)cnc1F [GT-07729, 1-(5-(aminomethyl)-6-fluoropyridin-3-yl)dihydropyrimidine-2,4(1H,3H)-dione]	A (A is defined as 0% ≤ substrate protein remaining % ≤ 80%)	B (B is defined as substrate protein remaining % > 80%)	A (A is defined as 0% ≤ substrate protein remaining % ≤ 80%)	A (A is defined as 0% ≤ substrate protein remaining % ≤ 80%)	A (A is defined as 0% ≤ substrate protein remaining % ≤ 80%)	A (A is defined as 0% ≤ substrate protein remaining % ≤ 80%)
O=C1CCN(c2cncc(CO)n2)C(=O)N1 [GT-07632, 1-(6-(hydroxymethyl)pyrazin-2-yl)dihydropyrimidine-2,4(1H,3H)-dione]	A (A is defined as 0% ≤ substrate protein remaining % ≤ 80%)	A (A is defined as 0% ≤ substrate protein remaining % ≤ 80%)	A (A is defined as 0% ≤ substrate protein remaining % ≤ 80%)	A (A is defined as 0% ≤ substrate protein remaining % ≤ 80%)	A (A is defined as 0% ≤ substrate protein remaining % ≤ 80%)	B (B is defined as substrate protein remaining % > 80%)
